Experimental data as given in patent US12435044B2, “Pyridazinone herbicides and pyridazinone intermediates used to prepare a herbicide” (FMC Corporation, priority 2018, dated 2025).

Key:
Type in all cases: in vivo
[1] = system: redstem (purple redstem, Ammannia coccinea); assay: Test F flooded paddy test; details: Flood, after 21 d
Source text: (§1) Three plastic pots (ca. 16-cm diameter) per rate were partially filled with sterilized Tama silt loam soil comprising a 35:50:15 ratio of sand, silt and clay and 2.6% organic matter. Separate plantings for each of the three pots were as follows. Seeds from the U.S. of monochoria (Monochoria vaginalis), sedge, umbrella (small-flower umbrella sedge, Cyperus difformis) and redstem (purple redstem, Ammannia coccinea), were planted into one 16-cm pot for each rate. Seeds from the U.S. of rice flatsedge (Cyperus iria), sprangletop, Brdd. (bearded sprangletop, Leptochloa fascicularis), one stand of 9 or 10 water seeded rice seedlings (Rice, W. S. Jap, Oryza sativa cv. ‘Japonica-M202’ or Rice, W. S. Ind, ‘Indica’), and two stands of 3 or 4 transplanted rice seedlings (Oryza sativa cv. ‘Japonica-M202’) were planted into one 16-cm pot for each rate. Seeds from the U.S. of barnyardgrass (Echinochloa crus-galli), and late watergrass (Echinochloa oryzicola) were planted into one 16-cm pot for each rate.
(§2) Plantings were sequential so that crop and weed species were at the 2.0 to 2.5-leaf stage at time of treatment.
(§3) Potted plants were grown in a greenhouse with day/night temperature settings of 30/27° C., and supplemental balanced lighting was provided to maintain a 16-hour photoperiod. Test pots were maintained in the greenhouse until test completion.
(§4) At time of treatment, test pots were flooded to 3 cm above the soil surface, treated by application of test compounds directly to the paddy water, and then maintained at that water depth for the duration of the test. Effects of treatments on rice and weeds were visually evaluated by comparison to untreated controls after 21 d. Plant response ratings, summarized in Table F, are based on a scale of 0 to 100 where 0 is no effect and 100 is complete control. A dash (-) response means no test result.

[2] = system: sedge, umbrella (small-flower umbrella sedge, Cyperus difformis); assay: Test F flooded paddy test; details: Flood, after 21 d
Source text: as §1, §2, §3, §4

[3] = system: rice flatsedge (Cyperus iria); assay: Test F flooded paddy test; details: Flood, after 21 d
Source text: as §1, §2, §3, §4

[4] = system: fall panicum (PANDI; Panicum dichotomiflorum); assay: Test H postemergence, mixtures of Cpd. No. 20 with atrazine or glyphosate
Source text: (§5) This test evaluated the effect of mixtures of Cpd. No. 20 with atrazine or glyphosate on several plant species. Seeds of plant species selected from corn (ZEAMD; Zea mays, cv. ‘Pioneer 1184’), soybean (GLXMA; Glycine max, cv. Pioneer 35T58), giant foxtail (SETFA; Setaria faberi), Surinamgrass (BRADC; Brachiaria decumbens), fall panicum (PANDI; Panicum dichotomiflorum), velvetleaf (ABUTH; Abutilon threophrasti), mare's tail (ERICA; Conyza canadensis), barnyardgrass (ECHCG; Echinochloa crus-galli), large crabgrass (DIGSA; Digitaria sanguinalis), palmer amaranth (AMAPA; Amaranthus palmeri), common waterhemp (AMATU; Amaranthus rudis), E. black nightshade (SOLPT; Solanum ptycanthum), and common ragweed (AMBEL; Ambrosia artemisiifolia) were planted in pots containing Redi-Earth® planting medium (Scotts Company, 14111 Scottslawn Road, Marysville, Ohio 43041) comprising spaghnum peat moss, vermiculite, wetting agent and starter nutrients and treated postemergence using test chemicals formulated in a non-phytotoxic solvent mixture which included a surfactant. Plants ranged in height from 2 to 10 cm and were in the one- to two-leaf stage for the postemergence treatment. Treated plants and untreated controls were maintained in a greenhouse for approximately 14 d, after which time all treated plants were compared to untreated controls and visually evaluated for injury. Plant response ratings, summarized in Tables H1 & H2, are based on a 0 to 100 scale where 0 is no effect and 100 is complete control. A dash (-) response means no test result. Test results are presented as a mean of 4 reps.

[5] = system: velvetleaf (ABUTH; Abutilon threophrasti); assay: as above
Source text: as §5

[6] = system: giant foxtail (SETFA; Setaria faberi); assay: as above
Source text: as §5

[7] = system: corn (ZEAMD; Zea mays, cv. ‘Pioneer 1184’); assay: as above
Source text: as §5

[8] = system: common waterhemp (AMATU; Amaranthus rudis); assay: as above
Source text: as §5

[9] = system: palmer amaranth (AMAPA; Amaranthus palmeri); assay: as above
Source text: as §5

[10] = system: large crabgrass (DIGSA; Digitaria sanguinalis); assay: as above
Source text: as §5

[11] = system: soybean (GLXMA; Glycine max, cv. Pioneer 35T58); assay: as above
Source text: as §5

[12] = system: Surinamgrass (BRADC; Brachiaria decumbens); assay: as above
Source text: as §5

[13] = system: barnyardgrass (ECHCG; Echinochloa crus-galli); assay: as above
Source text: as §5

[14] = system: common ragweed (AMBEL; Ambrosia artemisiifolia); assay: as above
Source text: as §5

[15] = system: mare's tail (ERICA; Conyza canadensis); assay: as above
Source text: as §5

[16] = system: E. black nightshade (SOLPT; Solanum ptycanthum); assay: as above
Source text: as §5

Q: Which results are given for `Cc1ccc2ccc(C)c(-c3c(O)c(Cl)nn(C)c3=O)c2c1` [Cpd. No. 20, 6-chloro-4-(2,7-dimethyl-1-naphthalenyl)-5-hydroxy-2-methyl-3(2H)-pyridazinone]?
A: Plant response rating (0 to 100 scale) ([1]; 31 g ai/ha): 0; Plant response rating (0 to 100 scale) ([1]; 62 g ai/ha): 0; Plant response rating (0 to 100 scale) ([1]; 125 g ai/ha): 92; Plant response rating (0 to 100 scale) ([1]; 250 g ai/ha): 99; Plant response rating (0 to 100 scale) ([2]; 31 g ai/ha): 0; Plant response rating (0 to 100 scale) ([2]; 62 g ai/ha): 60; Plant response rating (0 to 100 scale) ([2]; 125 g ai/ha): 95; Plant response rating (0 to 100 scale) ([2]; 250 g ai/ha): 100; Plant response rating (0 to 100 scale) ([3]; 31 g ai/ha): 70; Plant response rating (0 to 100 scale) ([3]; 62 g ai/ha): 85; Plant response rating (0 to 100 scale) ([3]; 125 g ai/ha): 97; Plant response rating (0 to 100 scale) ([3]; 250 g ai/ha): 100; Observed result (plant response rating), PANDI ([4]; applied alone at 31 g a.i./ha): 73; Observed result (plant response rating), PANDI ([4]; applied alone at 62 g a.i./ha): 84; Observed result (plant response rating), PANDI ([4]; applied alone at 125 g a.i./ha): 89; Observed result (plant response rating), ABUTH ([5]; applied alone at 31 g a.i./ha): 76; Observed result (plant response rating), ABUTH ([5]; applied alone at 62 g a.i./ha): 89; Observed result (plant response rating), ABUTH ([5]; applied alone at 125 g a.i./ha): 94; Observed result (plant response rating), SETFA ([6]; applied alone at 31 g a.i./ha): 71; Observed result (plant response rating), SETFA ([6]; applied alone at 62 g a.i./ha): 79; Observed result (plant response rating), SETFA ([6]; applied alone at 125 g a.i./ha): 80; Observed result (plant response rating), ZEAMD ([7]; applied alone at 31 g a.i./ha): 0; Observed result (plant response rating), ZEAMD ([7]; applied alone at 62 g a.i./ha): 0; Observed result (plant response rating), ZEAMD ([7]; applied alone at 125 g a.i./ha): 0; Observed result (plant response rating), AMATU ([8]; applied alone at 31 g a.i./ha): 70; Observed result (plant response rating), AMATU ([8]; applied alone at 62 g a.i./ha): 80; Observed result (plant response rating), AMATU ([8]; applied alone at 125 g a.i./ha): 80; Observed result (plant response rating), AMAPA ([9]; applied alone at 31 g a.i./ha): 10; Observed result (plant response rating), AMAPA ([9]; applied alone at 62 g a.i./ha): 36; Observed result (plant response rating), AMAPA ([9]; applied alone at 125 g a.i./ha): 54; Observed result (plant response rating), DIGSA ([10]; applied alone at 31 g a.i./ha): 34; Observed result (plant response rating), DIGSA ([10]; applied alone at 62 g a.i./ha): 29; Observed result (plant response rating), DIGSA ([10]; applied alone at 125 g a.i./ha): 36; Observed result (plant response rating), GLXMA ([11]; applied alone at 31 g a.i./ha): 30; Observed result (plant response rating), GLXMA ([11]; applied alone at 62 g a.i./ha): 21; Observed result (plant response rating), GLXMA ([11]; applied alone at 125 g a.i./ha): 18; Observed result (plant response rating), BRADC ([12]; applied alone at 31 g a.i./ha): 73; Observed result (plant response rating), BRADC ([12]; applied alone at 62 g a.i./ha): 84; Observed result (plant response rating), BRADC ([12]; applied alone at 125 g a.i./ha): 93; Observed result (plant response rating), ECHCG ([13]; applied alone at 31 g a.i./ha): 100; Observed result (plant response rating), ECHCG ([13]; applied alone at 62 g a.i./ha): 100; Observed result (plant response rating), ECHCG ([13]; applied alone at 125 g a.i./ha): 100; Observed result (plant response rating), AMBEL ([14]; applied alone at 31 g a.i./ha): 89; Observed result (plant response rating), AMBEL ([14]; applied alone at 62 g a.i./ha): 94; Observed result (plant response rating), AMBEL ([14]; applied alone at 125 g a.i./ha): 98; Observed result (plant response rating), ERICA ([15]; applied alone at 31 g a.i./ha): 85; Observed result (plant response rating), ERICA ([15]; applied alone at 62 g a.i./ha): 85; Observed result (plant response rating), ERICA ([15]; applied alone at 125 g a.i./ha): 88; Observed result (plant response rating), SOLPT ([16]; applied alone at 31 g a.i./ha): 86; Observed result (plant response rating), SOLPT ([16]; applied alone at 62 g a.i./ha): 93; Observed result (plant response rating), SOLPT ([16]; applied alone at 125 g a.i./ha): 95
